These results are taken from US10167300B2, “Metalloenzyme inhibitor compounds as fungicides” (priority 2014, dated 2019).

Read-outs that look alike come from different tables or passages of the source.

In series [1] the test system is Mycosphaerella graminicola; Anamorph: Septoria tritici; Bayer Code SEPTTR (field isolate collected from Wellsbourne, England in 2012, FI SEPTTR). Nature of the series: Type B (low volume, EC formulation, track sprayer 200 L/ha) assay, leaf blotch of wheat, SEPTTR field isolate (FI SEPTTR). To be noted: field isolate, low volume EC, 100 g/ha, wheat (Yuma); for Disease Control, FI SEPTTR Type B Assay (100 g/ha) 3 DC: 3 Day Curative; for Disease Control, FI SEPTTR Type B Assay (100 g/ha) 3 DP: 3 Day Protectant. The class given is in vivo, Mycosphaerella graminicola on wheat plants (variety Yuma). In a few lines: (§1)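 Wheat seedlings (Yuma, first leaf emerged) sprayed with acetone/Triton X-100 solutions (Type A) or 10% EC diluted in 0.1% Trycol at 200 L/ha (Type B), inoculated before or after spraying. Inoculated plants held 3 days at 20 °C, 100% RH, then greenhouse; % disease control from severity versus untreated plants.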

Test in series [2]: as above
The class given is in vivo, Mycosphaerella graminicola on wheat plants (variety Yuma). To be noted: Zymoseptoria tritici, 72 h, field isolate, low volume EC, 100 g/ha, wheat (Yuma). A digest of the protocol: as §1

In series [3] the test system is Mycosphaerella graminicola; Anamorph: Septoria tritici; Bayer Code SEPTTR (standard laboratory isolate, SI SEPTTR). Nature of the series: Type A (high volume) assay, leaf blotch of wheat, standard laboratory SEPTTR isolate (SI SEPTTR). The class given is in vivo, Mycosphaerella graminicola on wheat plants (variety Yuma). To be noted: Zymoseptoria tritici, standard laboratory isolate, high volume, 50 ppm, wheat (Yuma). In a few lines:
as §1

The test system is the same in series [4]. Nature of the series: Type B (low volume, EC formulation, track sprayer 200 L/ha) assay, leaf blotch of wheat, standard laboratory SEPTTR isolate (SI SEPTTR). The class given is in vivo, Mycosphaerella graminicola on wheat plants (variety Yuma). To be noted: Zymoseptoria tritici, 72 h, standard laboratory isolate, low volume EC, 100 g/ha, wheat (Yuma). In a few lines:
as §1

The mark [5] stands for this setting: 3 Day Curative, read-out: Disease Control, FI SEPTTR Type B Assay (100 g/ha) 3 DC.
[6] abbreviates: 3 Day Protectant, read-out: Disease Control, FI SEPTTR Type B Assay (100 g/ha) 3 DP.
The mark [7] stands for this setting: 24 h, 1 Day Protectant, read-out: Disease Control, SI SEPTTR Type A Assay (50 ppm) 1 DP.
[8] abbreviates: 72 h, 3 Day Curative, read-out: Disease Control, SI SEPTTR Type A Assay (50 ppm) 3 DC.
Setting [9] is: 3 Day Curative, read-out: Disease Control, SI SEPTTR Type B Assay (100 g/ha) 3 DC.
[10] abbreviates: 3 Day Protectant, read-out: Disease Control, SI SEPTTR Type B Assay (100 g/ha) 3 DP.

What is called melting point is the temperature, or range, at which the solid turns liquid.

Turning to `CC(C)(C)C(O)(Cc1cncnc1)c1ccc(-c2ccc(SC(F)(F)F)cc2)cn1` (stereo not shown) [Compound 231], in series [1], the “Disease Control, FI SEPTTR Type B Assay (100 g/ha) 3 DC” value is given as “D (<40)” and the “Disease Control, FI SEPTTR Type B Assay (100 g/ha) 3 DP” value was “B (60-79)”.
As to `CCOC(CC)(c1cncnc1)c1ccc(-c2ccc(OC(F)(F)F)cc2F)cn1` (stereo not shown) [Compound 193], in series [1], the “Disease Control, FI SEPTTR Type B Assay (100 g/ha) 3 DC” value was “D (<40)” and the “Disease Control, FI SEPTTR Type B Assay (100 g/ha) 3 DP” value was “B (60-79)”.
As to `CC(C)(C)C(O)(c1cncnc1)c1ccc(-c2ccc(OC(F)F)cc2)cn1` (stereo not shown) [Compound 59], the pest or weed control at 100 g/ha in series [2] (setting [5]), in series [2] (setting [6]), in series [4] (setting [9]) and in series [4] (setting [10]) was 80 to 100% each time. In addition, the pest or weed control at 50 ppm in series [3] (setting [7]) and in series [3] (setting [8]) was 80 to 100% throughout.
With `CC(C)(C)c1ccc(-c2ccc(C(O)(c3cncnc3)C(C)(C)C)nc2)cc1` (stereo not shown) [Compound 97], the pest or weed control at 100 g/ha in series [2] (setting [5]), in series [2] (setting [6]), in series [4] (setting [9]) and in series [4] (setting [10]) was 80 to 100% each time. Besides, the pest or weed control at 50 ppm in series [3] (setting [7]) was in the range of 80 to 100%.
As to `CC(C)(C#N)c1ccc(-c2ccc(C(O)(c3cncnc3)C(C)(C)C)nc2)cc1` (stereo not shown) [Compound 152], the pest or weed control at 100 g/ha in series [2] (setting [5]), in series [2] (setting [6]), in series [4] (setting [9]) and in series [4] (setting [10]) was 80 to 100% in each case. Also, the pest or weed control at 50 ppm in series [3] (setting [7]) is 80 to 100%.
For `CC(C)C(O)(c1cncnc1)c1ccc(-c2ccc(OCC(F)(F)F)nc2)cn1` (stereo not shown) [Compound 64], the pest or weed control at 100 g/ha in series [2] (setting [5]) lay within 60 to 79%; in series [2] (setting [6]), 80 to 100%; in series [4] (setting [9]), 80 to 100%; in series [4] (setting [10]), 80 to 100%. The pest or weed control at 50 ppm in series [3] (setting [7]) and in series [3] (setting [8]) was 80 to 100% each time.
On to `OC(c1cncnc1)(c1ccc(-c2ccc(OC(F)(F)F)cc2)cn1)C1CC1` (stereo not shown) [Compound 73], for which the pest or weed control at 100 g/ha lay in the range of 60 to 79% in series [2] (setting [5]), 60 to 79% in series [2] (setting [6]), 80 to 100% in series [4] (setting [9]) and 80 to 100% in series [4] (setting [10]). The pest or weed control at 50 ppm in series [3] (setting [7]) was 80 to 100%.
In turn, `CC(O)(Cc1cncnc1)c1ccc(-c2ccc(Cl)cc2)cn1` (stereo not shown) [Compound 25, 2-[5-(4-chlorophenyl)-2-pyridyl]-1-pyrimidin-5-yl-propan-2-ol] came in with a melting point of 150 to 155 °C. In series [3] (setting [7]), the pest or weed control at 50 ppm lay in the range of 40 to 59%. Moreover, in series [3] (setting [8]), the pest or weed control at 50 ppm is 80 to 100%.
